# From US20100166662A1, “MAGNETIC RESONANCE IMAGING METHOD USING VANADYL-BASED CONTRAST AGENTS” (The University of Chicago, priority 2006, published 2010)
# Assays:
# 3T3-L1 adipocytes = experiment: Uptake of 2-deoxy-D-[1-14C]glucose by 3T3-L1 adipocytes; type: cell-based
# Procedure: The effect of vanadyl compounds on uptake of 2-deoxy-D-[1-^14C]glucose by 3T3-L1 adipocytes was measured using methods described in Makinen, M. W., et al., “Structural Origins of the Insulin-Mimetic Activity of Bis(acetylacetonato)oxovanadium(IV),” J. Biol. Chem. 277 (2002) pp. 12215-12220, which is incorporated herein by reference. Serum-starved, differentiated […] adipocytes were used in the metabolic assays. Cells were washed twice with phosphate-buffered isotonic saline at 37° C. and serum-starved for 2.5 hours in Krebs-Ringer buffer lacking bovine serum albumin or serum. The medium was removed, and cells were incubated for 30 minutes in buffer with different concentrations of VO^2+-based contrast agents with or without serum albumin (1 mM) prior to measuring glucose uptake rates. Glucose transport rates were measured by the addition of 20 μM 2-deoxy-D-[1-^14C] glucose.
# p-ERK = experiment: Cell signaling study, Western blot of p-ERK in Caco-2 and HCA-7 cells; type: cell-based, human; details: 100, 250 or 500 μM, 5 min
# Procedure: HCA-7 and Caco-2 cells derived from human colonic adenocarcinomas obtained from the American Type Culture Collection, Manassas, Va. were cultured at 37° C. in a humidified atmosphere of 5% CO2-95% air in 6-well plates (250,000 cells/well/2 mL in 5% serum medium). When cells were ˜70-80% confluent, cells were transferred to serum-free media and kept overnight. A vanadyl compound was added to a well to a final concentration of 100, 250, or 500 μM and incubated for 5 minutes. In each 6-well plate, 2 wells were set as controls and 4 wells were set for one desired concentration of a vanadyl compounds. Cells were then homogenized in 2× Laemmli sodium dodecyl sulfate (SDS) buffer. Samples were boiled for 5 minutes at 100° C. and proteins quantified using the RC-DC protein assay (Bio-Rad). Western blotting was then carried out, briefly described as follows. SDS-treated samples (50 μg/lane) were separated by SDS-polyacrylamide gel electrophoresis (PAGE) on a 4-15% resolving gel. Pre-stained molecular weight markers were included in each gel. Gels were electroblotted to immobilon-P transfer membranes (Millipore Billerica, Mass.). […] The blots were washed, and the p-AKT and p-ERK were detected in film and digitized for final quantification.
# p-AKT = experiment: Cell signaling study, Western blot of p-AKT in Caco-2 and HCA-7 cells; type: cell-based, human; details: 5 min; for level of p-AKT compared to controls: Caco-2 and HCA-7 cells
# Procedure: HCA-7 and Caco-2 cells derived from human colonic adenocarcinomas obtained from the American Type Culture Collection, Manassas, Va. were cultured at 37° C. in a humidified atmosphere of 5% CO2-95% air in 6-well plates (250,000 cells/well/2 mL in 5% serum medium). When cells were ˜70-80% confluent, cells were transferred to serum-free media and kept overnight. A vanadyl compound was added to a well to a final concentration of 100, 250, or 500 μM and incubated for 5 minutes. In each 6-well plate, 2 wells were set as controls and 4 wells were set for one desired concentration of a vanadyl compounds. Cells were then homogenized in 2× Laemmli sodium dodecyl sulfate (SDS) buffer. Samples were boiled for 5 minutes at 100° C. and proteins quantified using the RC-DC protein assay (Bio-Rad). Western blotting was then carried out, briefly described as follows. SDS-treated samples (50 μg/lane) were separated by SDS-polyacrylamide gel electrophoresis (PAGE) on a 4-15% resolving gel. Pre-stained molecular weight markers were included in each gel. Gels were electroblotted to immobilon-P transfer membranes (Millipore Billerica, Mass.). Following blocking of non-specific antibody binding, the blots were exposed to rabbit polyclonal anti-pAKT (Cell Signaling Technology, Danvers, Mass.) or mouse monoclonal anti-pERK (Santa Cruz Biotechnology, Inc., Santa Cruz, Calif.) and developed with secondary antibody using standard methods. The blots were washed, and the p-AKT and p-ERK were detected in film and digitized for final quantification.
# FIG. 3 illustrates two Western blots of p-AKT using Caco-2 (left panel) and HCA-7 cells (right panel) treated with VO(acac)2 in a concentration of 100, 250 or 500 μM (top, middle and bottom rows, respectively). Lane 1 is the control; lanes 2 and 3 are duplicates of cells exposed to VO(acac)2 a particular concentration of VO(acac)2. These blots were analyzed by […] on X-OMAT™ autoradiogram films using an enhanced chemiluminesence system.
# [1] = T1 relaxivity of the contrast agent in buffer; type: physicochemical; details: 0.01 M HEPES buffer pH 7.4 with 0.15 M NaCl; 4.7 Tesla
# Procedure: The T1 relaxation times of VO(acac)2 in 0.01 M HEPES buffer at pH 7.4 with 0.15 M NaCl were determined. With the determined T1 values at different concentrations of VO(acac)2, the relaxivity was determined using equation 1,
# where T1m is the measured T1 for VO(acac)2, T1w is the T1 for water, C is the concentration of the contrast agent, and r1 is the relaxivity. The relaxivity for VO(acac)2 of 2.5±0.2 mM^−1s^−1 is slightly lower but close to that of known contrast agents of gadolinium complexes of 4.3±0.2 mM^−1s^−1 at 4.7 Tesla. This means that VO(acac)2 can produce significant, easily detectable changes in MR image intensity.
# AT6.1 prostate tumors = experiment: Vanadyl concentration in tumor and muscle tissue by atomic absorption spectroscopy; type: in vivo, nude mice; details: at 5 hours after about 0.15 mmol/kg i.v., mice
# Procedure: AT6.1 prostate tumors were implanted subcutaneously in the hind limbs of nude mice. The tumors were monitored and allowed to grow to about 6-8 mm over a period of about 2 weeks. The VO^2+-based contrast agent was dissolved in dimethyl sulfoxide and the resulting solution was diluted with saline. The final concentration of DMSO was about 5% by volume. The solution was about 10 mM VO^2+-based contrast agent. VO(acac)2 was added slowly to the tail vein of each mouse using a syringe infusion pump (Harvard Apparatus, South Natick, Mass.). A total of 100 μL of solution were added in 5 minutes (flow rate=20 μL/minute) for a total dosage of about 0.15 mmol/kg. All mice were kept in a cage and monitored after injection. The mice were then sacrificed at various times. Tissue samples of the tumors and muscles were removed after a mouse was sacrificed. The tissue samples were weighed and then digested by wet digestion using H2O2 and HNO3. Atomic absorption measurements were carried out using Perkin Elmer AAnalyst 300 with an HGA 800 furnace. Control sets (n=3) were free of contrast agent. Measurements were based on standard curves of known vanadyl concentration with a correlation coefficient of 0.99820.
# AT6.1 prostate tumor = experiment: In vivo MRI and contrast media dynamics in rats bearing AT6.1 tumors; set-up: species or system Copenhagen rat; details: rat
# Procedure: MRI studies were performed using a 4.7 Tesla Bruker scanner with multi-slice echo-planner spectroscopic imaging (EPSI). The scanning parameters were as follows: TR/TE of 800/80 msec; field of view 40 mm; array size of 256×256; slice thickness of 0.5 mm; and, an average of 1.
# First, high-resolution reference images were acquired by conventional spin echo and gradient echo pulse sequences using multiple slices. These reference images provided anatomic reference information and were used to accurately measure tumor volume. Then multi-slice (usually 3 slices) echo-planner spectroscopic imaging (EPSI) with repetition time (TR) of 800 msec and echo time (TE) of 80 msec were acquired. Acquisition of MRI data using high-resolution EPSI pulse sequence may also be used. These sequence images were acquired with spatial resolution of 200 micron in-plane in ˜500 micron slices and spectral resolution of 2 Hz. These images were acquired at the same spatial resolution as conventional images but provided increased sensitivity to contrast media effects.
# A Dunning AT6.1 prostate tumor was implanted subcutaneously in the hind limb of a Copenhagen rat. The tumor was monitored and imaging began when the tumor reached a size of 5-10 mm. The VO^2+-based contrast agent was dissolved in dimethyl sulfoxide and the resulting solution was diluted with saline. The final concentration of DMSO was about 5% by volume. The solution was about 10 mM VO^2+-based contrast agent.
# After 6 to 8 pre-contrast MR images were obtained as a reference, 0.15 mmol/kg of VO(acac)2 was injected through a catheter placed in the tail vein of the rat over 5 minutes. During MR imaging, the rats were anesthetized using isofluorane mixed with air and oxygen flowing through a mask. Exhaust gases were eliminated through an F-Air canister attached to the mask set up. Temperature was monitored continuously by a rectal thermometer and controlled with a warm water blanket. Heart rate, respiration rate, and blood pressure were monitored using an optical detector system from SA Instruments (Stony Brook, N.Y.). To minimize motion artifacts, rats were wrapped in co-flex and taped to a Plexiglass board. The leg was secured through the coil in a plastic tube and taped to the cradle.
# Post-contrast EPSI scans were acquired for about 4 hours. Each EPSI scan took about 3.5 minutes. Images were used in which the intensity was proportional to the peak height of the water resonance in each voxel. […]
# 0.15 mmol/kg of VO(acac)2 was injected through a catheter placed in the tail vein of the rat over 5 minutes. […] Temperature was monitored continuously by a rectal thermometer and controlled with a warm water blanket. Heart rate, respiration rate, and blood pressure were monitored using an optical detector system from SA Instruments (Stony Brook, N.Y.). […]
# [2] = Toxicity study in tumor-bearing nude mice (blood parameters, i-STAT); type: in vivo; details: 1 mmol/kg via tail vein, monitored over three days, mice bearing AT6.1 tumor
# Procedure: Toxicity studies were performed with tumor-bearing nude mice weighing about 25-30 grams (n=5). An AT6.1 prostate tumor was implanted subcutaneously in the hind limb of the mouse. 1 mmol/kg of VO(acac)2 was administered through a catheter placed in the tail vein. The VO(acac)2 was dissolved in dimethyl sulfoxide and the resulting solution was diluted with saline. The final concentration of DMSO was about 5% by volume. The solution was about 10 mM VO(acac)2.
# The pH, pCO2, HCO3^−, TCO2, serum O2, Na^+, K^+, Ca^2+, glucose, blood urea nitrogen (BUN), Hematocrit (Hct) and hemoglobin (Hb) were monitored using an i-STAT analyzer (East Windsor, N.J.) by taking ˜30 μL blood samples over a period of three days.
# [3] = Solubility in aqueous solutions at physiological pH; type: physicochemical
# Procedure: Bis(acetylamido)oxovanadium(IV) [VO(acac-NH2)2]. VO(acac-NH2)2 was synthesized according to the procedure described by Crans et al., “Bis(acetylamido)oxovanadium(IV) Complexes: Solid State and Solution Studies,” J. Chem. Soc. Dalton Trans. (2001) pp. 3337-3345. One equivalent of vanadyl sulfate was dissolved in water followed by the addition of 3-equivalents of acetoacetamide under constant stirring. A solution of 10% sodium bicarbonate was then added dropwise to raise the pH from 1.5 to 3.6 in order to form a suspension. A bluish precipitate was obtained after allowing the solution to stand for one day at 4° C. The precipitate was filtered off, washed with a small amount of chloroform, and dried under vacuum.
# Bis(acetylacetanato-bisNH2)oxovanadium(IV) [VO(acac-(NH2)2)2]. VO(acac-(NH2)2)2 is synthesized as follows. One equivalent of vanadyl sulfate is dissolved in water followed by the addition of 3 equivalents of malonamide under constant stirring. A solution of 10% sodium bicarbonate is then added dropwise to raise the pH in order to form a suspension. A bluish precipitate is obtained after standing the solution for one day at 4° C. The precipitate is filtered off, washed with a small amount of chloroform, and dried under vacuum.
# [4] = 0.15 mmol/kg i.v. over 5 minutes, AT6.1 tumor
compound,measurement,setting,value
"Cc1occc(=O)c1[O-].Cc1occc(=O)c1[O-].[O]=[V+2] [VO(malto)2, Bis(maltolato)oxovanadium(IV)]",dependence of increase in glucose uptake on compound:serum albumin ratio,3T3-L1 adipocytes; data not shown,no clear dependence
same,enhancement of glucose uptake per equivalent of VO2+ compared with VO(acac)2 and VO(OPT)2,3T3-L1 adipocytes; data not shown,markedly less
same,glucose uptake (effect in words),"3T3-L1 adipocytes; with or without 1 mM serum albumin, data not shown",facilitate glucose uptake
"O=S(=O)([O-])[O-].[O]=[V+2] [VOSO4, vanadyl sulfate, reference compound]",activation of p-ERK (in words),p-ERK,did not induce measurable activation
same,activation of p-AKT (in words),"p-AKT; 100, 250 or 500 μM",did not induce measurable activation
Bis(acetylacetonato)oxovanadium(IV) [VO(acac)2],relaxivity r1,[1],2.5 ± 0.2 mM⁻¹ s⁻¹
same,vanadyl concentration in tumor tissue,AT6.1 prostate tumors,remained relatively high
same,level of p-AKT compared to controls,p-AKT; 100 μM,2 fold
same,level of p-AKT compared to controls,p-AKT; 250 μM,5 fold
same,level of p-AKT compared to controls,p-AKT; 500 μM,12 fold
same,"MR signal enhancement in tumor regions, often as high as",AT6.1 prostate tumor; [4],≤ 100%
same,"MR signal enhancement in tumor regions, typical",AT6.1 prostate tumor; [4],greater than 50%
same,enhancement in muscle for a long time after injection,AT6.1 prostate tumor; 0.15 mmol/kg i.v.,relatively little enhancement in muscle
same,T1 and T2* contrast,"AT6.1 prostate tumor; 0.15 mmol/kg i.v., 4.7 Tesla",excellent T1 and T2* contrast
same,"blood pH, pCO2, HCO3−, TCO2, serum O2, Na+, K+, Ca2+, glucose, BUN, Hct, Hb",[2],fell within the normal range
same,uptake of glucose,"3T3-L1 adipocytes; in the presence of equimolar concentrations of serum albumin, 30 min incubation",maximally enhanced
Bis(acetylamido)oxovanadium(IV) [VO(acac-NH2)2],solubility in aqueous solutions,[3],completely soluble
